Laboratory results taken from US6946472B2, “Polycyclic compounds exhibiting anti-tumor activities” (Hoffman-La Roche Inc., priority 2002, dated 2005).
pIC50: −log10 of the molar value.

Tested on: HCT116 cell line (colorectal cancer)
Test: Anti-proliferative activity assay (WST-8)
Format: cell-based
Conditions: Homo sapiens, HCT-116, 96 h; in vitro growth of HCT116, 4 days incubation, WST-8, concentration yielding 50% OD of control growth
Protocol: A single suspension of tumor cells was inoculated to the serially diluted 96-well microtestplate. Then the testplate was incubated in the 5% CO2 ambience at 37° C. for 4 days (2-3×10^3 cells/well). The degree of cell growth in a monolayer was measured by using WST-8 (Dojindo, Japan). IC50 values of the polycyclic compounds directed against tumor cells were calculated as the concentration of drug yielding 50% OD of the control growth.
The anti-tumor activity of polycyclic compounds of the formula [I] against in vitro growth of HCT116 cell line (colorectal cancer) is summarized in Table 1.

SMILES	pIC50
CN(CCCN(C)CCNc1nc2ccccc2c2c1C(=O)c1cnccc1-2)CCNc1nc2ccccc2c2c1C(=O)c1cnccc1-2 [Example 5, 6-{2-[methyl-(3-{methyl-[2-(7-oxo-7H-5,9-diaza-benzo[c]fluoren-6-ylamino)-ethyl]-amino}-propyl)-amino]-ethylamino}-5,9-diaza-benzo[c]fluoren-7-one]	9.19
CN(CCCN(C)CCNc1nc2ccccc2c2c1C(=O)c1ccncc1-2)CCNc1nc2ccccc2c2c1C(=O)c1ccncc1-2 [Example 10, 6-{2-[methyl-(3-{methyl-[2-(7-oxo-7H-5,10-diaza-benzo[c]fluoren-6-ylamino)-ethyl]-amino}-propyl)-amino]-ethylamino}-5,10-diaza-benzo[c]fluoren-7-one]	9.52
CN(CCCN(C)CCNc1nc2cc(Cl)ccc2c2c1C(=O)c1cnccc1-2)CCNc1nc2cc(Cl)ccc2c2c1C(=O)c1cnccc1-2 [Example 6, 3-chloro-6-{2-[(3-{[2-(3-chloro-7-oxo-7H-5,9-diaza-benzo[c]fluoren-6-ylamino)-ethyl]-methyl-amino}-propyl)-methyl-amino]-ethylamino}-5,9-diaza-benzo[c]fluoren-7-one]	10.70
CN(C)CCNc1nc2cc(O)ccc2c2c1C(=O)c1ccccc1-2 [Reference compound, 6-(2-dimethylamino-ethylamino)-3-hydroxy-7H-indeno[2,1-c]quinolin-7-one, reference compound]	7.92

Further lines, results first:

pIC50	SMILES
10.10	COc1ccc2c3c(c(NCCN(C)CCCN(C)CCNc4nc5ccccc5c5c4C(=O)c4cnccc4-5)nc2c1)C(=O)c1cnccc1-3 [Example 16, 3-methoxy-6-{2-[methyl-(3-{methyl-[2-(7-oxo-7H-5,9-diaza-benzo[c]fluoren-6-ylamino)-ethyl]-amino}-propyl)-amino]-ethylamino}-5,9-diaza-benzo[c]fluoren-7-one]
9.89	CN(CCCN(C)CCNc1nc2ccccc2c2c1C(=O)c1ccncc1-2)CCNc1nc2ccccc2c2c1C(=O)c1cnccc1-2 [Example 15, 6-{2-[methyl-(3-{methyl-[2-(7-oxo-7H-5,10-diaza-benzo[c]fluoren-6-ylamino)-ethyl]-amino}-propyl)-amino]-ethylamino}-5,9-diaza-benzo[c]fluoren-7-one]
